From US20260094266A1, “DIGITAL SYSTEM FOR CELL ASSAYS USING LABEL FREE MICROSCOPY” (NANOLIVE SA, priority 2022, published 2026)

What was measured:
Assay type in all cases: cell-based
[1] = system: 3T3-L1-derived preadipocyte cells; assay: LCDA quantification of Ebastin-induced cell death in 3T3-L1-derived preadipocytes; conditions: 20 μM Ebastin added 1 hour before acquisition; versus untreated cells
Description: It was finally concluded by quantifying the capacity of another drug to kill cells, Ebastin, to validate the simplest of the uses of the LCDA. 3T3-L1-derived preadipocyte cells were seeded in 35 mm dish at ˜30,000 cells/ml and let to grow for 48 h in DMEM supplemented with 10% FBS.

HeLa cells = assay: LCDA quantification of Ebastine-induced cell death in HeLa cells (FIG. 7); conditions: 50 uM Ebastin, treated right before acquisition; versus control well; 5 h post treatment
Source text: FIG. 7: Application of LCDA to quantify Ebastine-induced cell death—HeLa cells grown in two wells were used as (A) control and (B) treatment experiment.

[2] = system: 3T3-L1-derived preadipocyte cells; assay: Live cell death assay (LCDA) benchmarked with live fluorescent cell death kit, camptothecin treatment; conditions: 2.5 μM camptothecin added 4 hours before acquisition; imaged for 17.5 hours; versus without camptothecin
Source text: To validate the performance of the LCDA, the invention method was benchmarked with a state-of-the-art live fluorescent kit (FIG. 6). 3t3-derived preadipocytes were imaged on an optical diffraction tomography system combining RI recording and epifluorescence, with and without addition of camptothecin, a proapoptotic drug (FIG. 6). Annexin V-Cy5 and Nuclear Green DCS1 were used as fluorescent markers to detect apoptosis and necrosis, respectively. The RI images of the kit-stained cells were also analyzed with the LCDA. The cell death information provided by the fluorescent signals contained within the RI segmentation masks was then compared, with the LCDA results (FIG. 6, E and F).
3T3-L1-derived preadipocyte cells were seeded in a 35 mm dish at ˜30,000 cells/ml and let to grow for 48 h in DMEM supplemented with 10% FBS. 4 hours before starting the acquisition, the cells were treated with 2.5 μM camptothecin (abcam—ab120115) to induce apoptosis. 10 minutes before starting the acquisition, Annexin V-Cy5 and Nuclear Green DCS1 (abcam—ab14147, ab138905) were added to the medium, following the supplier's protocol. […]
RI images were then analyzed and plotted with the LCDA module's features. Fluorescence was quantified by measuring the mean intensity in each cell using RI segmentations using an independent image analysis tool. […]

Row | SMILES | induced cell death over time (LCDA) [1] | number of dead cells predicted over time (cell death rate) (HeLa cells) | death of cells (LCDA and Annexin V-Cy5 / Nuclear Green DCS1 fluorescence) [2]
1 | CC(C)(C)c1ccc(C(=O)CCCN2CCC(OC(c3ccccc3)c3ccccc3)CC2)cc1 [Ebastin] | treated cells show a very clear curve of induced cell death | higher cell death rate in the treated condition already at 5 h post treatment | –
2 | CC[C@@]1(O)C(=O)OCc2c1cc1n(c2=O)Cc2cc3ccccc3nc2-1 [camptothecin] | – | – | accelerates greatly the death of cells and results in the whole cell population dying by the end of the experiment
